What was measured:
[1] = test system: WAG/Rij rats; assay: EPM after 7 days oral gavage, WAG/Rij rats, Study 1; format: in vivo, rat; settings: 7 days gavage ~2.5 g/kg b.w./day, compared to control (SD)
Description: To extend the results and ensure that the results were not strain dependent, exogenous ketone supplements were tested on both SPD rats and Wistar Albino Glaxo/Rijswijk (WAG/Rij) rats for 7 days by gavage (5 g/kg/day and 2.5 g/kg/day, respectively, SD+KE and SD+KS), as WAG/Rij rats show reduced activity of GABAergic system (Luhmann H J, et al. Impairment of intracortical GABAergic inhibition in a rat model of absence epilepsy. Epilepsy Res. 1995 September; 22(1):43-51).
EPM (COULBOURN Instruments) was used to assess anxiety-related behavior of the rats after 83 days of chronic feeding or after 7 days of oral gavage. EPM experiments were carried out under non-stressful conditions (in a dimly lit and quiet room) between 12.00 and 14.00 hours.
The rats were transferred in their home cage to the experimental room 30 min prior to beginning the experiment. Briefly, rats were placed in the intersection of the four arms of the EPM, facing the open arm opposite to where the experimenter was and their behavior was recorded for 5 minutes. The amount of time spent and number of entries made on the open arms, closed arms and the center zones were recorded. Latency to entry into the closed arms and the distance travelled in each zones was also measured in chronically treated SPD rats. Notes were made on other ethological measures such as number of rears, head dips, fecal boli, and freezing, or stretched-attend postures.
At the end of the 5-minute test the rats were removed from the maze and placed back into their home cage. The maze was cleaned with 70% alcohol and after it with tap water and dried with paper towel between rats. The primary method for data collection was a video-tracking system with computer interface and video camera (SMART V3.0 PLATFORM, PANLAB, Harvard Apparatus, USA), to automatically collect behavioral data in SPD rats. A blinded observer was present in the testing room separated from the maze by a curtain, and manually collected EPM data in both SPD and WAG/Rij animals at the end of treatments.
Results were considered significant when p<0.05. Significance was determined by unpaired t-test.

[2] = Blood βHB and glucose levels (PRECISION XTRA), SPD rats, Study 1; settings: for Glucose, Mean Diff., Tukey's multiple comparisons test (Compare S-D to WagRij) / βHB, Mean Diff., Tukey's multiple comparisons test (Compare S-D to WagRij): S-D (SPD) rats, own Baseline minus 7 days of the same group; for Blood glucose levels: at 24 hours; for Blood βHB (90 days), Mean Diff., Tukey's multiple comparisons test: chronic feeding, After:SD (control) minus After:treated group
Description: In order to familiarize the animals to the intragastric gavage method, tap water was gavaged for 5 days before ketone supplementation. A total of 48 male SPD rats were fed for 83 days with either standard rodent chow (SD)+water application (˜25 g/kg b.w. water/day) (SD/control group; n=9) or SD+ketone supplementation by gavage.
In the chronic feeding study, blood βHB and glucose levels were measured 24 hours before the 1st day of ketone treatments (baseline levels) and after the 13th week of ketone treatment. In the 7-day oral gavage studies, blood βHB and glucose levels were measured 24 hours before the 1st day of ketone treatments (baseline levels; SPD and WAG/Rij rats) and after the 1st day (SPD rats) and the 7th day (SPD and WAG/Rij rats) of ketone gavaging. In acute study, blood βHB and glucose levels were measured 40 min after ketone treatment. Whole blood samples (10 μL) were taken from the saphenous vein for analysis of blood glucose (mg/dl) and βHB (mmol/1) levels with the commercially available glucose and ketone monitoring system PRECISION XTRA™ (ABBOTT Laboratories, Abbott Park, Ill., USA). The PRECISION XTRA™ ketone monitoring system only measures βHB blood levels; therefore, total blood ketone levels would be higher than measured.
All data are presented as the mean±standard error of the mean (SEM). The effects of ketone supplementations on anxiety level were compared, as well as on blood βHB and glucose levels to control or/and baseline levels. Data analysis was performed using GraphPad PRISM version 6.0a. Results were considered significant when p<0.05. Significance was determined by unpaired t-test. Blood ketone, blood glucose, and body weight change were compared using a two-way ANOVA with Tukey's multiple comparisons test and unpaired t-test.

[3] = test system: SPD rats; assay: EPM after 83 days chronic feeding, SPD rats, Study 3; format: in vivo, rat; settings: chronic feeding 83 days, compared to control (SD)
Description: Generally, exogenous ketone supplementation was tested by adding to food and feeding chronically for 83 days in SPD rats and administering sub-chronically for 7 days in both rat models by daily intragastric gavage bolus, followed by assessment of anxiety measures on EPM. The groups included standard diet (SD) or SD+ketone supplementation.
EPM (Coulbourn Instruments) was used to assess anxiety-related behavior of the rats after 83 days of chronic feeding or after 7 days of oral gavage. EPM experiments were carried out under non-stress conditions (in dimly lit and quiet room) between 12.00 and 14.00 hours.
The rats were transferred in their home cage to the experimental room 30 min prior to beginning the experiment. Briefly, rats were placed in the intersection of the four arms of the EPM, facing the open arm opposite to where the experimenter was and their behavior was recorded for 5 minutes. The amount of time spent and number of entries made on the open arms, closed arms and the center zones were video recorded. Latency to entry into the closed arms and the distance travelled in each zones was also measured in chronically treated SPD rats. […] At the end of the 5-minute test, the rats were removed from the maze and placed back into their home cage. The maze was cleaned with 70% alcohol and after it with tap water and dried with paper towel between rats. The primary method for data collection was a video-tracking system with computer interface and video camera (SMART V3.0 PLATFORM, Panlab, Harvard Apparatus, USA), to automatically collect behavioral data in SPD rats. A blinded observer was present in the testing room separated from the maze by a curtain, and collected EPM data in both SPD and WAG/Rij animals.
Results were considered significant when p<0.05.

[4] = Blood βHB and glucose compared between SPD and WAG/Rij rats, Study 1; format: in vivo, rat; settings: for Glucose, Mean Diff., Tukey's multiple comparisons test (Compare S-D to WagRij) / βHB, Mean Diff., Tukey's multiple comparisons test (Compare S-D to WagRij): 7 days:S-D minus 7 days:WR, same supplement (5 vs 2.5 g/kg/day); for βHB levels in WAG/Rij rats compared to SPD rats: before (baseline) and after sub-chronic ketone supplementation
[5] = SPD rats, 7 days of gavaging, compared to baseline
[6] = SPD rats, after 83 days of chronic feeding, compared to control
[7] = SPD rats, 24h:SD (control) minus 24h:treated group

Row | Compound | Glucose, Mean Diff., Tukey's multiple comparisons test (Compare S-D to WagRij) [2] | βHB, Mean Diff., Tukey's multiple comparisons test (Compare S-D to WagRij) [2] | Blood βHB [2, 5] | Blood βHB [2, 6] | Blood glucose levels ([2]; SPD rats, compared to baseline) | Blood βHB (90 days), Mean Diff., Tukey's multiple comparisons test ([2]; SPD rats) | Distance traveled in the closed arms [3] | Time spent in the closed arms [3] | Glucose, Mean Diff., Tukey's multiple comparisons test (Compare S-D to WagRij) [4] | βHB, Mean Diff., Tukey's multiple comparisons test (Compare S-D to WagRij) [4] | βHB levels in WAG/Rij rats compared to SPD rats [4] | further results
1 | CC(=O)CC(=O)OCCC(C)OC(=O)CC(C)=O (stereo not shown) [KE, 1,3-butanediol-acetoacetate diester] | -1.841 mg/dL | −0.1389 mmol/1 | did not change | elevated | lower | −0.2978 mmol/1 | significantly less | significantly less | 27.5 mg/dL | −0.9653 mmol/1 | Higher | Time spent in the center [1]: more time; Blood βHB levels ([2]; SPD rats, 24 hours after a single gavage, compared to baseline): elevated; Blood glucose levels ([2]; SPD rats, compared to control group): lower; Blood glucose ([2]; SPD rats, from baseline to 7 days): did not change; Blood Glucose (7 days), Mean Diff., Tukey's multiple comparisons test [2, 7]: 33.11 mg/dL; Blood βHB (7 days), Mean Diff., Tukey's multiple comparisons test [2, 7]: −0.5235 mmol/1; Blood Glucose (7 days), Mean Diff., Tukey's multiple comparisons test ([2]; SPD rats, 24h minus 7days of the same group): -23.02 mg/dL; Blood Glucose (7 days), Mean Diff., Tukey's multiple comparisons test ([2]; SPD rats, own Baseline minus 24h of the same group): 21.18 mg/dL
2 | Na^+/K^+-βHB mineral salt [KS] | -0.3258 mg/dL | −0.4455 mmol/1 | significant difference | elevated | lower | −0.3653 mmol/1 | significantly less | significantly less | 15.28 mg/dL | −0.5614 mmol/1 | Higher | Entries to the closed arms [1]: less frequent; Time spent in the closed arms [1]: less time; Time spent in the open arms [1]: more time; Blood βHB (7 days), Mean Diff., Tukey's multiple comparisons test ([2]; SPD rats, 7days:SD (control) minus 7days:treated group): −0.547 mmol/1; Distance traveled in the center [3]: more; Distance traveled in the open arms [3]: significantly greater; Time spent in the center [3]: significantly more

Reference: patent US10980764B1, “Exogenous ketone supplements for reducing anxiety-related behavior” (priority 2016, dated 2021)
